{"source": "patent US20010037025A1", "about": "“New compounds, their preparation and use” (priority 1998, published 2001)", "origin": "cited, not measured here", "test_system": "RAR", "settings": "literature statement, Heyman et al. Cell 1992", "data": [{"compound": "CC1=C(/C=C/C(C)=C/C=C/C(C)=C/C(=O)O)C(C)(C)CCC1", "note": "[all-trans RA]", "values": [{"measurement": "activation of / selectivity for RAR", "value": "displays selectivity for RAR"}]}]}
